Test system: Colletotrichum graminicola (CGR; isolate Carroll-IA-99)
Format: cell-based
Conditions: in words, variant after one round of DNA shuffling

Pp-PDF1-1C-7A4: Pp-PDF1 variant from first shuffling round (RVCEKPSKFFKGLCGSDRDCTNACRKEGLATGECQSKGFFNSVCVCKKPC; Synthetic sequence obtained from DNA shuffling of a plant sequence.)
in vitro inhibitory activity against Colletotrichum graminicola: significantly improved

— US8865967B2 (priority 2010, dated 2014)
